Measurements reported in PubChem BioAssay AID1963963 (Molecular Pharmacology Branch, DTP, NCI, 2024).

System: 958667-338-R-J2-PDC tumor spheroids viability
Assay: Anticancer human tumor 958667-338-R-J2-PDC patient-derived colon adenocarcinoma cell line growth inhibition [PI3K]
Details: spheroids with HUVEC and MSC; for IC50: curve of first compound; for viability, T/C: stronger effect = lower value
From the text: Combinatorial screen of targeted agents with the PI3K inhibitors inavolisib, alpelisib, duvelisib, and copanlisib in multi-cell type tumor spheroids
A high-throughput screen of multi-cell type tumor spheroids was designed to identify active combinations of targeted small molecules and PI3K pathway inhibitors. Complex spheroids include a stromal component modeled by human endothelial cells (HUVEC) and fibroblasts modeled by human mesenchymal stem cells (MSCs). The concentration ranges selected for each drug and investigational agent were based upon clinically achievable concentrations if the clinical Cmax of the agent was known.
Compounds. The drugs and investigational agents: inavolisib (NSC800729), alpelisib (NSC765974), duvelisib (NSC772469), copanlisib (NSC816437), ipatasertib (NSC767898), afuresertib (NSC778305), talazoparib (NSC767125), sapanisertib (NSC764658), selumetinib (NSC741078), tovorafenib (DAY101, NSC766906), vemurafenib (NSC761431), ravoxertinib (NSC781343), sotorasib (NSC818433), MRTX1133 (NSC 836407), abemaciclib (NSC 768073), palbociclib (NSC758247), venetoclax (NSC 766270), SY5609 (NSC837396), enzalutamide (NSC755605), and darolutamide (NSC825331), were obtained from the National Cancer Institute (NCI) Developmental Therapeutics Program Chemical Repository. The FDA-approved anticancer drug set is available from the NCI Developmental Therapeutics Program. […] The stock solutions were prepared in dimethyl sulfoxide (DMSO, Sigma-Aldrich, St. Louis, MO, cat. D2650) at 800-fold the tested concentration and stored at -70 degrees C prior to their use. All drugs and investigational agents were tested over a range starting from a high concentration at or near the clinical Cmax and decreasing in half-log increments. If the clinical Cmax for an agent had not been determined, the highest concentration tested was 10 microM.
Cell Culture. All cells were maintained in an incubator at 37 degrees C and 5% CO2 with 95% humidity. The PDC lines were cultured according to standard operating procedures established by the NCI PDMR (https://pdmr.cancer.gov/sops/default.htm). All PDCs were thawed and cultured in Matrigel-coated flasks prepared with a working solution of 1X Ham's F-12 nutrient mix, without supplementation (Invitrogen, Waltham, MA, cat. 11765054), 100 U/mL penicillin-streptomycin (Invitrogen, cat. 15140122), and 2.5% Matrigel (Corning Inc., Corning, NY, cat. 354248) for the first three passages. The 354836-022-R-J1-PDC, 475296-252-R-J1-PDC, and 997726-040-R-J2-PDC lines were cultured in 6A media, which includes advanced DMEM/F-12 (Thermo Fisher Scientific, cat. 12634028), 10 mM HEPES (Thermo Fisher Scientific, cat. 15630080), 1X GlutaMAX supplement (Thermo Fisher Scientific, cat. 35050061), 0.1 mg/mL primocin (InvivoGen, San Diego, CA, cat. ant-pm-2), 10% defined fetal bovine serum, heat inactivated (HyClone Laboratories Inc., Logan, UT, cat. SH30070.03HI), 50% L-WRN conditioned media (ATCC, cat. CRL-3276), 1.25 mM N-Acetyl-L-cysteine (Sigma-Aldrich, cat. A9165), 10 mM nicotinamide (Sigma-Aldrich, cat. N0636), 1X B-27 supplement (Thermo Fisher Scientific, cat. 17504044), 1X N-2 supplement (Thermo Fisher Scientific, cat. 17502048), and 10 microM Y-27632 dihydrochloride (Tocris Bioscience, Bristol, United Kingdom, cat. 1254). The 624824-186-R-J2-PDC line was cultured in 6C/Colon 1B media, which includes all 6A media components plus 50 ng/mL human EGF recombinant protein (Thermo Fisher Scientific, cat. PHG0311). […]

[1] = second compound 0.0316 µM, first compound 0.0316 µM
[2] = second compound 0.0316 µM, first compound 0.1 µM
[3] = second compound 0.0316 µM, first compound 0.316 µM
[4] = second compound 0.0316 µM, first compound 1 µM
[5] = second compound 0.0316 µM, first compound 3.16 µM
[6] = second compound 0.0316 µM, first compound 10 µM
[7] = second compound 0.1 µM, first compound 0.0316 µM
[8] = second compound 0.1 µM, first compound 0.1 µM
[9] = second compound 0.1 µM, first compound 0.316 µM
[10] = second compound 0.1 µM, first compound 1 µM
[11] = second compound 0.1 µM, first compound 3.16 µM
[12] = second compound 0.1 µM, first compound 10 µM
[13] = second compound 0.316 µM, first compound 0.0316 µM
[14] = second compound 0.316 µM, first compound 0.1 µM
[15] = second compound 0.316 µM, first compound 0.316 µM
[16] = second compound 0.316 µM, first compound 1 µM
[17] = second compound 0.316 µM, first compound 3.16 µM
[18] = second compound 0.316 µM, first compound 10 µM
[19] = second compound 1 µM, first compound 0.0316 µM
[20] = second compound 1 µM, first compound 0.1 µM
[21] = second compound 1 µM, first compound 0.316 µM
[22] = second compound 1 µM, first compound 1 µM
[23] = second compound 1 µM, first compound 3.16 µM
[24] = second compound 1 µM, first compound 10 µM
[25] = second compound 3.16 µM, first compound 0.0316 µM
[26] = second compound 3.16 µM, first compound 0.1 µM
[27] = second compound 3.16 µM, first compound 0.316 µM
[28] = second compound 3.16 µM, first compound 1 µM
[29] = second compound 3.16 µM, first compound 3.16 µM
[30] = second compound 3.16 µM, first compound 10 µM
[31] = second compound 10 µM, first compound 0.0316 µM
[32] = second compound 10 µM, first compound 0.1 µM
[33] = second compound 10 µM, first compound 0.316 µM
[34] = second compound 10 µM, first compound 1 µM
[35] = second compound 10 µM, first compound 3.16 µM
[36] = second compound 10 µM, first compound 10 µM
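Also: spheroids exposed to compounds for seven days before readout.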

`Cn1nccc1Nc1nccc(-c2ccn(C(CO)c3ccc(Cl)c(F)c3)c(=O)c2)n1` (centres undefined) + Cc1nc(NC(=O)N2CCCC2C(N)=O)sc1-c1ccnc(C(C)(C)C(F)(F)F)c1 was tested, and the IC50 (second compound 0.0316 µM) was greater than 10 µM, the IC50 (second compound 0.1 µM) was greater than 10 µM and the IC50 (second compound 0.316 µM) was greater than 10 µM. It also gave an IC50 (second compound 1 µM) of 8.05 µM, an IC50 (second compound 3.16 µM) of 3.66 µM and an IC50 (second compound 10 µM) of 1.6 µM. The viability, T/C [1] was 113%, the viability, T/C [2] was 105% and the viability, T/C [3] was 119%. It also gave a viability, T/C [4] of 101%, a viability, T/C [5] of 79.5% and a viability, T/C [6] of 77.2%. The viability, T/C [7] was 137%, the viability, T/C [8] was 98% and the viability, T/C [9] was 97.2%. It also gave a viability, T/C [10] of 79.8%, a viability, T/C [11] of 75% and a viability, T/C [12] of 71.8%. The viability, T/C [13] was 99.6%, the viability, T/C [14] was 92.8% and the viability, T/C [15] was 91.3%. For the same compound, the viability, T/C [16] was 72%, the viability, T/C [17] was 82.2% and the viability, T/C [18] was 67.4%. The viability, T/C [19] was 101%, the viability, T/C [20] was 85.9% and the viability, T/C [21] was 84.5%. The viability, T/C [22] was 68.8%, the viability, T/C [23] was 77.8% and the viability, T/C [24] was 42.1%. The viability, T/C [25] was 65.8%, the viability, T/C [26] was 78.8% and the viability, T/C [27] was 74.6%. For the same compound, the viability, T/C [28] was 90.4%, the viability, T/C [29] was 56.6% and the viability, T/C [30] was 4.78%. It also gave a viability, T/C [31] of 68%, a viability, T/C [32] of 55.8% and a viability, T/C [33] of 67.1%. The viability, T/C [34] was 72.4%, the viability, T/C [35] was 26.9% and the viability, T/C [36] was 5.35%.

For `CC1(C)CCC(CN2CCN(c3ccc(C(=O)NS(=O)(=O)c4ccc(NCC5CCOCC5)c([N+](=O)[O-])c4)c(Oc4cnc5[nH]ccc5c4)c3)CC2)=C(c2ccc(Cl)cc2)C1` + Cc1nc(NC(=O)N2CCCC2C(N)=O)sc1-c1ccnc(C(C)(C)C(F)(F)F)c1, the IC50 (second compound 0.0316 µM) was 7.01 µM, the IC50 (second compound 0.1 µM) was 6.73 µM and the IC50 (second compound 0.316 µM) was 6.72 µM. For the same compound, the IC50 (second compound 1 µM) was 6.91 µM, the IC50 (second compound 3.16 µM) was 5.32 µM and the IC50 (second compound 10 µM) was 4.21 µM. For the same compound, the viability, T/C [1] was 88.8%, the viability, T/C [2] was 95% and the viability, T/C [3] was 83.5%. It also gave a viability, T/C [4] of 123%, a viability, T/C [5] of 97.1% and a viability, T/C [6] of 29.1%. The viability, T/C [7] was 90.4%, the viability, T/C [8] was 93.2% and the viability, T/C [9] was 99.4%. It also gave a viability, T/C [10] of 99.8%, a viability, T/C [11] of 107% and a viability, T/C [12] of 24.8%. It also gave a viability, T/C [13] of 93.3%, a viability, T/C [14] of 85.8% and a viability, T/C [15] of 104%. It also gave a viability, T/C [16] of 99%, a viability, T/C [17] of 98.5% and a viability, T/C [18] of 25.7%. The viability, T/C [19] was 88.9%, the viability, T/C [20] was 72.6% and the viability, T/C [21] was 93.3%. For the same compound, the viability, T/C [22] was 87.6%, the viability, T/C [23] was 91.1% and the viability, T/C [24] was 32.5%. It also gave a viability, T/C [25] of 89.3%, a viability, T/C [26] of 76.8% and a viability, T/C [27] of 67%. It also gave a viability, T/C [28] of 76.5%, a viability, T/C [29] of 66.6% and a viability, T/C [30] of 31.4%. It also gave a viability, T/C [31] of 65.7%, a viability, T/C [32] of 64.6% and a viability, T/C [33] of 55.8%. The viability, T/C [34] was 61.5%, the viability, T/C [35] was 65.7% and the viability, T/C [36] was 12%.
